According to EP0086757A1, “Derivatives of alpha or beta-mercaptopropionylamidoacetic acids, processes for their preparation and the therapeutic compositions which include them as active principles” (Farmatis S.r.l., priority 1982, dated 1983):
Like-named read-outs stand apart in the source and are kept apart here.

Columns and labels:
acute toxicity (DL50) = format: in vivo
Description: In fact, while S-carboxymethylcysteine has a DL50 of 5.18 g/kg, the new thiolic esters' DL50 cannot be determined, i.p., since more than 5 g/kg cannot be administered; but, orally, the DL50 is above 8 g/kg, as with the S-carboymethylcysteine. The subacute, chronic and fetal toxi city was evaluated by mixing the esters with the food.

[1] = tested on: bronchial hypersecretion induced in rats with SO2; assay: bronchial hypersecretion induced with SO2 inhalation; format: in vivo; conditions: oral 0.5 g/kg/die for two weeks; 300 ppm SO2 two hours per day, total 90 hours; untreated 80%
Description: The inhalation of 300 ppm of […] for two hours per day, for a total period of 90 hours, produced bronchial obstruction in only 12% of the animals compared to the 80% produced in those not treated. […] Finally, with the rats which underwent CCl4 nebulization treatment for 10 days (5 applications, 2.minutes per day), the contemporaneous oral administration of the esters of this invention, at doses of 0.5 g/kg/die, prevented intrabronchial desquamation and reactive hyperplasia of the mucosa to the extent of 60%.

[2] = tested on: Carragenin-induce edema in hind paw of the rat; assay: carragenin-induced hind paw edema (anti-inflammatory activity); format: in vivo, rats; conditions: oral by esophagal probe one hour before carragenin; paw volume three hours later
Description: The anti-inflammatory activity was investigated on rats by administering the new products,orally,using an esophagal probe. One hour after administration, a subcutaneous injection of 0.05 ml of 1% carragenin was made in the right hind paw and three hours later a plethysmometric evaluation was made of the difference in volume between the two hind paws (WINTER C.A., RISLEY E.A., NUSS G.W., Carragenin-induce edema in hind paw of the rat as an assay for anti-inflammatory drugs. Proc. Soc. Exp. Biol. Med., 111, 544 - 1962).

aerosol histaminic shock = aerosol histaminic shock (antibronchospastic activity); format: in vivo
Description: The antibronchospastic activity of the new compounds, in face, was evaluated by pretreating test animals with 2 g/kg of the new compounds, administered by way of an esophagal probe, and then submitting them to aerosol histaminic shock (histamine phosphate 1:80 at about 140 mm Eg). The time was noted between when the aerosol was given and the convulsions began. After two hours of pretreatment, times amounting to 70% of the approximately 120 seconds of the control group were obtained. […] The new compounds, therefore, provide intense and persistent protection against bronchspasm induced experimentally with histamine, in strict correlation with the anti-inflammatory activity reported previously.

[3] = tested on: rats which underwent CCl4 nebulization treatment; assay: CCl4 nebulization, bronchial mucosa protection; format: in vivo; conditions: oral 0.5 g/kg/die; CCl4 nebulization 10 days, 5 applications, 2 minutes per day
Description: Finally, with the rats which underwent CCl4 nebulization treatment for 10 days (5 applications, 2.minutes per day), the contemporaneous oral administration of the esters of this invention, at doses of 0.5 g/kg/die, prevented intrabronchial desquamation and reactive hyperplasia of the mucosa to the extent of 60%.

[4] = tested on: glycopeptides of the bronchial mucus; assay: glycopeptide analysis of bronchial mucus of orally treated patients with bronchial hypersecretion; format: in vivo; conditions: comparative test, 70 mg/kg/die
[5] = tested on: Carragenin-induce edema in hind paw of the rat; conditions: comparison value for a classical antiphlogistic; cited from earlier work

Structure (SMILES) | DL50 (acute toxicity (DL50); i.p. (route only implied for the comparator), more than 5 g/kg cannot be administered) [g/kg] | DL50 (acute toxicity (DL50); orally) | animals with bronchial obstruction (not protected) [1] [%] | DE50 [2] | difference between the control and tested subjects in time to convulsions (aerosol histaminic shock) | prevention of intrabronchial desquamation and reactive hyperplasia of the mucosa [3] [%] | average increase in sialoglycopeptides [4] [%] | diminution of glycopeptides and mucin [4] [%] | DE50 [5] [mg/kg]
N[C@@H](CSCC(=O)O)C(=O)O [S-carboxymethylcysteine] | 5.18 | above 8 g/kg | 25 | not determinable | no appreciable difference | ≤ 40 | ≤ 75 | ≤ 45 | 
CC(=O)Oc1ccccc1C(=O)O [acetylsalicylic acid] |  |  |  |  |  |  |  |  | 100
